Results as given in US20170197979A1, “BENZOTHIADIAZOLAMINES” (BAYER PHARMA AKTIENGESELLSCHAFT, priority 2014, published 2017).
pIC50: −log10 of the molar value.

These molecules were tested against T1, human full-length MKNK1 (Homo sapiens, UniProt Q9BUB5, T385D) (assay: MKNK1 kinase high ATP assay (TR-FRET)). Settings: not given.
T1 construct: GST (N); purchased Carna Biosciences 02-145; host or cells: insect cells (baculovirus expression system)
Assay type: biochemical
Description: MKNK1 Kinase High ATP Assay
MKNK1-inhibitory activity at high ATP of compounds of the present invention after their preincubation with MKNK1 was quantified employing the TR-FRET-based MKNK1 high ATP assay as described in the following paragraphs.
A recombinant fusion protein of Glutathione-S-Transferase (GST, N-terminally) and human full-length MKNK1 (amino acids 1-424 and T344D of accession number BAA 19885.1), expressed in insect cells using baculovirus expression system and purified via glutathione sepharose affinity chromatography, was purchased from Carna Biosciences (product no 02-145) and used as enzyme. As substrate for the kinase reaction the biotinylated peptide biotin-Ahx-IKKRKLTRRKSLKG (C-terminus in amide form) was used, which can be purchased e.g. from the company Biosyntan (Berlin-Buch, Germany).
For the assay 50 nL of a 100 fold concentrated solution of the test compound in DMSO was pipetted into a black low volume 384 well microtiter plate (Greiner Bio-One, Frickenhausen, Germany), 2 μL of a solution of MKNK1 in aqueous assay buffer [50 mM HEPES pH 7.5, 5 mM MgCl2, 1.0 mM dithiothreitol, 0.005% (v/v) Nonidet-P40 (Sigma)] was added and the mixture was incubated for 15 min at 22° C. to allow pre-binding of the test compounds to the enzyme before the start of the kinase reaction. Then the kinase reaction was started by the addition of 3 μL of a solution of adenosine-tri-phosphate (ATP, 3.3 mM=>final conc. in the 5 μL assay volume is 2 mM) and substrate (0.1 μM=>final conc. in the 5 μL assay volume is 0.06 μM) in assay buffer and the resulting mixture was incubated for a reaction time of 30 min at 22° C. The concentration of MKNK1 was adjusted depending of the activity of the enzyme lot and was chosen appropriate to have the assay in the linear range, typical concentrations were in the range of 0.003 μg/mL. The reaction was stopped by the addition of 5 μL of a solution of TR-FRET detection reagents (5 nM streptavidine-XL665 [Cisbio Bioassays, Codolet, France] and 1 nM anti-ribosomal protein S6 (pSer236)-antibody from Invitrogen [#44921G] and 1 nM LANCE EU-W1024 labeled ProteinG [Perkin-Elmer, product no. AD0071]) in an aqueous EDTA-solution (100 mM EDTA, 0.1% (w/v) bovine serum albumin in 50 mM HEPES pH 7.5).
The resulting mixture was incubated for 1 h at 22° C. to allow the formation of complex between the phosphorylated biotinylated peptide and the detection reagents. Subsequently the amount of phosphorylated substrate was evaluated by measurement of the resonance energy transfer from the Eu-chelate to the streptavidine-XL. Therefore, the fluorescence emissions at 620 nm and 665 nm after excitation at 350 nm were measured in a TR-FRET reader, e.g. a Rubystar (BMG Labtechnologies, Offenburg, Germany) or a Viewlux (Perkin-Elmer). The ratio of the emissions at 665 nm and at […] was taken as the measure for the amount of phosphorylated substrate. The data were normalised (enzyme reaction without inhibitor=0% inhibition, all other assay components but no enzyme=100% inhibition).

T1 sequence (Q9BUB5 1-424 isoform Q9BUB5-2 T344D): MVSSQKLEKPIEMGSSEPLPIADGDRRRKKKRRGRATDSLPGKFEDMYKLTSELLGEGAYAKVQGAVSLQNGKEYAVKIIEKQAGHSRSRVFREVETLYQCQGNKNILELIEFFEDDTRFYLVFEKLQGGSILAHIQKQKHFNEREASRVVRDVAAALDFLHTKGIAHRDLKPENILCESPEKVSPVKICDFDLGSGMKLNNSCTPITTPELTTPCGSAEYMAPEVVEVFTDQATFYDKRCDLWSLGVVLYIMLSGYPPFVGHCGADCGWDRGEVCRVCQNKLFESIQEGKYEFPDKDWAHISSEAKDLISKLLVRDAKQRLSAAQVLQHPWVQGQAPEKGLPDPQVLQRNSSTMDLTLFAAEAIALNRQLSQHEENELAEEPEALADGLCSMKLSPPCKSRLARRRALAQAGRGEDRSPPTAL

SMILES | pIC50
O=C1CCN(C(=O)[C@H]2CCc3c(sc4ncnc(Nc5ccc6nnsc6c5)c34)C2)CC1 [Example 16, 1-{[(7S)-4-(1,2,3-Benzothiadiazol-6-ylamino)-5,6,7,8-tetrahydro[1]benzothieno[2,3-d]pyrimidin-7-yl]carbonyl}piperidin-4-one] | 7.82

Same assay, conditions: TR-FRET, high ATP (2 mM final), 15 min preincubation with enzyme, GST-MKNK1 (T344D); read-out: MKNK1 IC50

SMILES | pIC50
CN(C)C(=O)[C@H]1CCc2c(sc3ncnc(Nc4ccc5nnsc5c4)c23)C1 [Example 1, (7S)-4-(1,2,3-Benzothiadiazol-6-ylamino)-N,N-dimethyl-5,6,7,8-tetrahydro[1]benzothieno[2,3-d]pyrimidine-7-carboxamide] | 7.80
COCCN(C)C(=O)[C@H]1CCc2c(sc3ncnc(Nc4ccc5nnsc5c4)c23)C1 [Example 2, (7S)-4-(1,2,3-Benzothiadiazol-6-ylamino)-N-(2-methoxyethyl)-N-methyl-5,6,7,8-tetrahydro[1]benzothieno[2,3-d]pyrimidine-7-carboxamide] | 8.03
C[C@@H]1CN(C(=O)[C@H]2CCc3c(sc4ncnc(Nc5ccc6nnsc6c5)c34)C2)C[C@H](C)O1 [Example 3, [(7S)-4-(1,2,3-Benzothiadiazol-6-ylamino)-5,6,7,8-tetrahydro[1]benzothieno[2,3-d]pyrimidin-7-yl][(2R,6S)-2,6-dimethylmorpholin-4-yl]methanone] | 7.89
C[C@@H]1COCCN1C(=O)[C@H]1CCc2c(sc3ncnc(Nc4ccc5nnsc5c4)c23)C1 [Example 4, [(7S)-4-(1,2,3-Benzothiadiazol-6-ylamino)-5,6,7,8-tetrahydro[1]benzothieno[2,3-d]pyrimidin-7-yl][(3R)-3-methylmorpholin-4-yl]methanone] | 7.96
C[C@H]1COCCN1C(=O)[C@H]1CCc2c(sc3ncnc(Nc4ccc5nnsc5c4)c23)C1 [Example 5, [(7S)-4-(1,2,3-Benzothiadiazol-6-ylamino)-5,6,7,8-tetrahydro[1]benzothieno[2,3-d]pyrimidin-7-yl][(3S)-3-methylmorpholin-4-yl]methanone] | 7.92
O=C([C@H]1CCc2c(sc3ncnc(Nc4ccc5nnsc5c4)c23)C1)N1CCOCC1 [Example 6, [(7S)-4-(1,2,3-Benzothiadiazol-6-ylamino)-5,6,7,8-tetrahydro[1]benzothieno[2,3-d]pyrimidin-7-yl](morpholin-4-yl)methanone] | 7.74
C[C@@H]1COC[C@H](C)N1C(=O)[C@H]1CCc2c(sc3ncnc(Nc4ccc5nnsc5c4)c23)C1 [Example 7, [(7S)-4-(1,2,3-Benzothiadiazol-6-ylamino)-5,6,7,8-tetrahydro[1]benzothieno[2,3-d]pyrimidin-7-yl][(3R,5S)-3,5-dimethylmorpholin-4-yl]methanone] | 8.24
C[C@@H]1CN(C(=O)[C@H]2CCc3c(sc4ncnc(Nc5ccc6nnsc6c5)c34)C2)C[C@@H](C)O1 [Example 8, [(7S)-4-(1,2,3-Benzothiadiazol-6-ylamino)-5,6,7,8-tetrahydro[1]benzothieno[2,3-d]pyrimidin-7-yl][(2R,6R)-2,6-dimethylmorpholin-4-yl]methanone] | 8.19
C[C@@H]1COC[C@@H](C)N1C(=O)[C@H]1CCc2c(sc3ncnc(Nc4ccc5nnsc5c4)c23)C1 [Example 9, [(7S)-4-(1,2,3-Benzothiadiazol-6-ylamino)-5,6,7,8-tetrahydro[1]benzothieno[2,3-d]pyrimidin-7-yl][(3R,5R)-3,5-dimethylmorpholin-4-yl]methanone] | 8.27
C[C@H]1CN(C(=O)[C@H]2CCc3c(sc4ncnc(Nc5ccc6nnsc6c5)c34)C2)C[C@H](C)O1 [Example 10, [(7S)-4-(1,2,3-Benzothiadiazol-6-ylamino)-5,6,7,8-tetrahydro[1]benzothieno[2,3-d]pyrimidin-7-yl][(2S,6S)-2,6-dimethylmorpholin-4-yl]methanone] | 8.30
CN(C(=O)[C@H]1CCc2c(sc3ncnc(Nc4ccc5nnsc5c4)c23)C1)S(C)(=O)=O [Example 11, (7S)-4-(1,2,3-Benzothiadiazol-6-ylamino)-N-methyl-N-(methylsulfonyl)-5,6,7,8-tetrahydro[1]benzothieno[2,3-d]pyrimidine-7-carboxamide] | 7.92
CN(C)CCN1CCN(C(=O)[C@H]2CCc3c(sc4ncnc(Nc5ccc6nnsc6c5)c34)C2)CC1 [Example 12, [(7S)-4-(1,2,3-Benzothiadiazol-6-ylamino)-5,6,7,8-tetrahydro[1]benzothieno[2,3-d]pyrimidin-7-yl]{4-[2-(dimethylamino)ethyl]piperazin-1-yl}methanone] | 8.19
CN(C)[C@H]1CCN(C(=O)[C@H]2CCc3c(sc4ncnc(Nc5ccc6nnsc6c5)c34)C2)C1 [Example 13, [(7S)-4-(1,2,3-Benzothiadiazol-6-ylamino)-5,6,7,8-tetrahydro[1]benzothieno[2,3-d]pyrimidin-7-yl][(3S)-3-(dimethylamino)pyrrolidin-1-yl]methanone] | 8.21
CN(C)C1CN(C(=O)[C@H]2CCc3c(sc4ncnc(Nc5ccc6nnsc6c5)c34)C2)C1 [Example 14, [(7S)-4-(1,2,3-Benzothiadiazol-6-ylamino)-5,6,7,8-tetrahydro[1]benzothieno[2,3-d]pyrimidin-7-yl][3-(dimethylamino)azetidin-1-yl]methanone] | 7.59
CN(C)C1CCN(C(=O)[C@H]2CCc3c(sc4ncnc(Nc5ccc6nnsc6c5)c34)C2)CC1 [Example 15, [(7S)-4-(1,2,3-Benzothiadiazol-6-ylamino)-5,6,7,8-tetrahydro[1]benzothieno[2,3-d]pyrimidin-7-yl][4-(dimethylamino)piperidin-1-yl]methanone] | 8.00
O=C([C@H]1CCc2c(sc3ncnc(Nc4ccc5nnsc5c4)c23)C1)N1CCC(F)(F)C1 [Example 17, [(7S)-4-(1,2,3-Benzothiadiazol-6-ylamino)-5,6,7,8-tetrahydro[1]benzothieno[2,3-d]pyrimidin-7-yl](3,3-difluoropyrrolidin-1-yl)methanone] | 7.96
O=C([C@H]1CCc2c(sc3ncnc(Nc4ccc5nnsc5c4)c23)C1)N1C[C@@H]2C[C@H]1CO2 [Example 18, [(7S)-4-(1,2,3-Benzothiadiazol-6-ylamino)-5,6,7,8-tetrahydro[1]benzothieno[2,3-d]pyrimidin-7-yl][(1S,4S)-2-oxa-5-azabicyclo[2.2.1]hept-5-yl]methanone] | 7.85
CN1C[C@@H]2C[C@H]1CN2C(=O)[C@H]1CCc2c(sc3ncnc(Nc4ccc5nnsc5c4)c23)C1 [Example 19, [(7S)-4-(1,2,3-Benzothiadiazol-6-ylamino)-5,6,7,8-tetrahydro[1]benzothieno[2,3-d]pyrimidin-7-yl][(1S,4S)-5-methyl-2,5-diazabicyclo[2.2.1]hept-2-yl]methanone] | 7.70
O=C([C@H]1CCc2c(sc3ncnc(Nc4ccc5nnsc5c4)c23)C1)N1CC2(COC2)C1 [Example 20, [(7S)-4-(1,2,3-Benzothiadiazol-6-ylamino)-5,6,7,8-tetrahydro[1]benzothieno[2,3-d]pyrimidin-7-yl](2-oxa-6-azaspiro[3.3]hept-6-yl)methanone] | 7.80
CN(C)CCN(C)C1CCN(C(=O)[C@H]2CCc3c(sc4ncnc(Nc5ccc6nnsc6c5)c34)C2)CC1 [Example 21, [(7S)-4-(1,2,3-Benzothiadiazol-6-ylamino)-5,6,7,8-tetrahydro[1]benzothieno[2,3-d]pyrimidin-7-yl](4-{[2-(dimethylamino)ethyl](methyl)amino}piperidin-1-yl)methanone] | 8.89
CN(CCNC(=O)OC(C)(C)C)C(=O)[C@H]1CCc2c(sc3ncnc(Nc4ccc5nnsc5c4)c23)C1 [Example 22, tert-Butyl {2-[{[(7S)-4-(1,2,3-benzothiadiazol-6-ylamino)-5,6,7,8-tetrahydro[1]benzothieno[2,3-d]pyrimidin-7-yl]carbonyl}(methyl)amino]ethyl}carbamate] | 7.85
